The MIC is the smallest concentration in the dilution series that meets the test's criterion for growth inhibition.

Consider four compounds from patent publication US20040138302A1, “Antifungal antibiotics” (Wyeth Holdings Corporation, priority 2002, published 2004).

Values after ≈ are worked out from the molar mass of the structure shown. Read-outs that look alike come from different tables or passages of the source.

Series [1] is described as follows: Solubility (physico-chemical properties). The format is physicochemical. Particulars: solvents MeOH, EtOH, DMSO.
For series [2], the system named is Candida pseudotropicalis. In words: Broth microdilution antifungal MIC (NCCLS). The format is cell-based. Particulars: Candida pseudotropicalis ATCC 28838, RPMI-1640, 35° C., 24-48 hours. On the procedure: (§1) The antifungal activity of Hygroscopene A is determined by a broth microdilution method as recommended by the National Committee for Clinical Laboratory Standard (NCCLS) (1, 2). Sterile, disposable, multiwell plates (96 U-shaped wells) containing serial dilutions of Hygroscopene A and a control drug (Amphotericin B) are prepared in a 100 μl volume with RPMI-1640 broth supplemented with 0.2% sodium bicarbonate and […] [3-(N-morpholino) propanesulfonic acid] buffer. RPMI-1640 is a completely synthetic medium that supports the growth of most fungi. Antimicrobial agent concentrations ranged from 0.06-64 μg/ml. Five colonies from 24-hour old yeast culture or 48-hour old filamentous fungi culture were suspended in 0.85% saline. The suspensions are diluted in RPMI-1640 broth and inoculated in to plates (100 μl/well) containing antimicrobial agents. The final inocula of yeast or fungi are 0.5-2.5×10^3 CFU/ml and 0.4×10^4-5×10^4 CFU/ml respectively. Plates are incubated at 35° C. for 24-72 hours in ambient air. Hygroscopene A is tested against a panel of pathogenic yeast and filamentous fungi, which consisted of Candida sp. and Aspergillus sp. The yeast and fungal strains tested are clinical isolates or were purchased from American Type Culture Collection (ATCC) (Rockville, Md.). […] The MIC values for yeast are determined after 24-48 hours of incubation. For filamentous fungi, the MIC is determined after 72 hours of incubation.

Series [3] has as its system Aspergillus niger. The series is described as follows: Broth microdilution antifungal MIC (NCCLS). The series is classed as cell-based. Particulars: Aspergillus niger ATCC 26933, RPMI-1640, 35° C., 72 hours. On the procedure: as §1
(In general: Broth dilution looks for growth in wells or tubes with falling amounts of substance.)

Series [4] concerns Candida krussii. The series is described as follows: Broth microdilution antifungal MIC (NCCLS). The format is cell-based. Particulars: Candida krussii 94-2, RPMI-1640, 35° C., 24-48 hours. On the procedure:
as §1

The subject of series [5] is Candida lustitaniae. The series is described as follows: Broth microdilution antifungal MIC (NCCLS). Conditions: Candida lustitaniae 94-3, RPMI-1640, 35° C., 24-48 hours. The series is classed as cell-based. On the procedure: as §1
Series [6] has as its system Candida parapsilosis. In words: Broth microdilution antifungal MIC (NCCLS). The format is cell-based. Conditions: RPMI-1640, 35° C., 24-48 hours. On the procedure:
as §1

The test system of series [7] is Aspergillus fumigatus. In words: Broth microdilution antifungal MIC (NCCLS). The series is classed as cell-based. Conditions: Aspergillus fumigatus S-430; RPMI-1640, 35° C., 72 hours. On the procedure:
as §1

The test system of series [8] is Candida rugosa. In words: Broth microdilution antifungal MIC (NCCLS). The format is cell-based. Conditions: Candida rugosa 94-10, RPMI-1640, 35° C., 24-48 hours. On the procedure:
as §1

Series [9] relates to Candida albicans. In words: Broth microdilution antifungal MIC (NCCLS). Particulars: RPMI-1640, 35° C., 24-48 hours. The series is classed as cell-based. On the procedure: as §1
Series [10] deals with Candida tropicalis. The series is described as follows: Broth microdilution antifungal MIC (NCCLS). The series is classed as cell-based. Conditions: RPMI-1640, 35° C., 24-48 hours. As to the method: as §1

On to `C\C(=C/C=C/C=C/CC/C=C/C(C)C(O)C(C)C(O)/C=C/C=C/C=C/C=C/C=C/C=C/CC(OS(=O)(=O)O)C(C)C(=O)CC(O)CC(O)/C=C/CC(O)CC(O)/C=C/CC(O)CC(O)CC(O)/C=C/CC(O)CC(O)CCCNC(=N)N)C(=O)O` (stereo not drawn) [Hygroscopene A], for which the Solubility result in series [1] is recorded as “Soluble in MeOH, EtOH, DMSO”. Moreover, the MIC in series [2] (Kluyveromyces marxianus, ATCC28838, read-out: MIC) came to 2 µg/mL (≈ 1.64 µM); in [3] (ATCC26933, read-out: MIC) it was 8 µg/mL (≈ 6.57 µM); in series [4] (read-out: MIC) it was 1 µg/mL (≈ 0.821 µM); in [5] (read-out: MIC) it was 1 µg/mL (≈ 0.821 µM); in [6] (Candida parapsilosis 94-9), 2.0 µg/mL (≈ 1.64 µM); in [6] (Lodderomyces parapsilosis, ATCC90018, Candida parapsilosis ATCC 90018, read-out: MIC) it was 2 µg/mL (≈ 1.64 µM). In addition, the MIC in series [6] (Lodderomyces parapsilosis, Candida parapsilosis 94-8, read-out: MIC) is 2 µg/mL (≈ 1.64 µM); in series [7], 2 µg/mL (≈ 1.64 µM); in series [8] (Diutina rugosa, read-out: MIC), 1 µg/mL (≈ 0.821 µM); in series [9] (Candida albicans, ATCC90028, Candida albicans ATCC 90028, read-out: MIC), 2 µg/mL (≈ 1.64 µM); in [9] (Candida albicans, Candida albicans 1063, read-out: MIC), 2 µg/mL (≈ 1.64 µM); in [9] (Candida albicans, Candida albicans 1117, read-out: MIC) it was 1 µg/mL (≈ 0.821 µM). Also, the MIC in series [10] (Candida tropicalis 94-13, read-out: MIC) came to 1 µg/mL (≈ 0.821 µM); in series [10] (Candida tropicalis 94-14), 1.0 µg/mL (≈ 0.821 µM).
On to `C[C@@H]1[C@H](O)[C@@H](C)/C=C/C=C/C=C/C=C/C=C/C=C/C=C/[C@H](O[C@@H]2O[C@H](C)[C@@H](O)[C@H](N)[C@@H]2O)C[C@@H]2O[C@](O)(C[C@@H](O)C[C@@H](O)[C@H](O)CC[C@@H](O)C[C@@H](O)CC(=O)O[C@H]1C)C[C@H](O)[C@H]2C(=O)O` [Amphotericin B, reference compound], for which the MIC came out at 0.25 µg/mL (≈ 0.271 µM) in series [2]; 0.50 µg/mL (≈ 0.541 µM) in [3]; 0.50 µg/mL (≈ 0.541 µM) in series [4]; 0.125 µg/mL (≈ 0.135 µM) in [5]; 0.25 µg/mL (≈ 0.271 µM) in series [6] (Candida parapsilosis 94-8); 0.25 µg/mL (≈ 0.271 µM) in [6] (Candida parapsilosis 94-9). The minimum inhibitory concentration (MIC) was 0.25 µg/mL (≈ 0.271 µM) in series [6] (Candida parapsilosis ATCC 90018); 0.50 µg/mL (≈ 0.541 µM) in [8]; 0.125 µg/mL (≈ 0.135 µM) in series [9] (Candida albicans 1063); 0.125 µg/mL (≈ 0.135 µM) in series [9] (Candida albicans 1117); 0.25 µg/mL (≈ 0.271 µM) in [9] (Candida albicans ATCC 90028); 0.25 µg/mL (≈ 0.271 µM) in [10] (Candida tropicalis 94-13). The compound further gave a minimum inhibitory concentration (MIC) in [10] (Candida tropicalis 94-14) of 0.25 µg/mL (≈ 0.271 µM).
As for `C\C(=C/C=C/C=C/CC/C=C/C(C)C(O)C(C)C(O)/C=C/C=C/C=C/C=C/C=C/C=C/CC(OS(=O)(=O)O)C(C)C(=O)CC(O)CC(O)/C=C/CC(O)CC(O)/C=C/CC(O)CC(O)CC(O)/C=C/CC(O)CC(O)CCCN)C(=O)O` (stereo not drawn) [Hygroscopene B], the Solubility result in [1] is “Soluble in MeOH, EtOH, DMSO”.
For `C\C(=C/C=C/C=C/CC/C=C/C(C)C(O)C(C)C(O)/C=C/C=C/C=C/C=C/C=C/C=C/CC(O)C(C)C(=O)CC(O)CC(O)/C=C/CC(O)CC(O)/C=C/CC(O)CC(O)CC(O)/C=C/CC(O)CC(O)CCCN)C(=O)O` (stereo not drawn) [Hygroscopene C], the Solubility result in series [1] is recorded as “Soluble in MeOH, EtOH, DMSO”.
